Experimental data reported in publication PMC6934184, “Selective DNA-PKcs inhibition extends the therapeutic index of localized radiotherapy and chemotherapy” (The Journal of Clinical Investigation, 2019).

Target: T1, JAK2 JH1 JH2 (Homo sapiens, UniProt O60674)
T1 construct: JAK2 JH1 JH2; purchased Thermo Fisher Scientific (Life Technologies) SelectScreen
Assay: SelectScreen Z'LYTE
Format: biochemical
In short: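 Percent values come from Thermo SelectScreen profiling of NU5455, combining activity and binding assays. CSF1R was run in Z'LYTE format at Km app ATP, and CAMK1 in Adapta format with ATP listed at 10.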

T1 sequence (O60674 532-1132 limits assumed): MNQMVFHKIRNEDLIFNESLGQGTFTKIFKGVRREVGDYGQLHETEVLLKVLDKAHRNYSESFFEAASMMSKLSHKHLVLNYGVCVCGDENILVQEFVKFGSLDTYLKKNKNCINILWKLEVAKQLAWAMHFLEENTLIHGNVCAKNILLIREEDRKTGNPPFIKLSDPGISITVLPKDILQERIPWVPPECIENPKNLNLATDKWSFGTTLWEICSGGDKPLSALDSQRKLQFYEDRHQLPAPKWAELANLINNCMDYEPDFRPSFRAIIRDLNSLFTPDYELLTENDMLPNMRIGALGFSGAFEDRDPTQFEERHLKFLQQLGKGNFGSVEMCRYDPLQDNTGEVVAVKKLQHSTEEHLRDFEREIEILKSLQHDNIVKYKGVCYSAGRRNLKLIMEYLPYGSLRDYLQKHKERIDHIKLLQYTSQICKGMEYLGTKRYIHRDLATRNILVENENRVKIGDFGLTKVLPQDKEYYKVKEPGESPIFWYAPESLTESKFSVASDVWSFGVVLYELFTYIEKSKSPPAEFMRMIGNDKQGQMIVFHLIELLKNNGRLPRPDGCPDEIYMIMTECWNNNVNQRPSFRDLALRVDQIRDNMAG

## CN(C(=O)CN1CCOCC1)c1ccc2sc3c(-c4cccc5c(=O)cc(N6CC7CCC(C6)O7)oc45)cccc3c2c1 [NU5455]
  inhibition at 1 µM: -6.7%
